{"source": "patent US6323203A", "about": "“Composition and method for treating diabetes” (Beyer; Camille F., priority 2000, dated 2001)", "key": {"[1]": {"test": "Single-blind, three-phase crossover study of single oral doses: blood analyses of metabolic, hormonal and electrolyte parameters in 8 normal male subjects", "format": "in vivo, human", "conditions": "for Free fatty acids, mean / Angiotensin I, mean / Renin, mean / C-peptide, mean / Potassium, mean / Uric acid, mean / Aldosterone, mean / Insulin, mean / Urea, mean / VLDL Cholesterol, mean / Norepinephrine, mean / HDL Cholesterol, mean / Glucose, mean / Triglycerides, mean / LDL Cholesterol, mean / Total cholesterol, mean / Fibrinogen, mean: 8 normal subjects; for Free fatty acids, mean: 0 h: PZG 0.47, PZA 0.51; for Angiotensin I, mean: 0 h: PZG 0.84, PZA 0.66; for Renin, mean: 0 h: PZG 1.0, PZA 1.5; for C-peptide, mean: 0 h: PZG 1.1, PZA 1.2; for Potassium, mean: 0 h: PZG 4.2, PZA 4.0; for Uric acid, mean: 0 h: PZG 6.0, PZA 5.6; for Aldosterone, mean: 0 h: PZG 8.6, PZA 13.6; for Insulin, mean: 0 h: PZG 8.8, PZA 5.4; for Urea, mean: 0 h: PZG 17, PZA 17; for VLDL Cholesterol, mean: 0 h: PZG 20, PZA 17; for Norepinephrine, mean: 0 h: PZG 37, PZA 75; for HDL Cholesterol, mean: 0 h: PZG 41, PZA 46; for Glucose, mean: 0 h: PZG 87, PZA 84; for Triglycerides, mean: 0 h: PZG 101, PZA 86; for LDL Cholesterol, mean: 0 h: PZG 107, PZA 104; for Total cholesterol, mean: 0 h: PZG 168, PZA 167; for Fibrinogen, mean: 0 h: PZG 266, PZA 293", "experimental": "A three-phase study, where single oral doses of placebo, followed in one week by 900 mg of pyrazinoylguanidine (PZG), followed in three weeks by 300 mg of pyrazinoic acid (PZA), involving normal male subjects, was carried out to compare and contrast metabolic effects of single doses of PZG and PZA. A purpose of the study was to determine whether the metalbolic effects observed after 3 and also 21 days of PZG administration in patients with renal disease or with diabetes also occurred after a single oral dose. […]\n(§1) Eight male nonsmoking subjects aged 24-32 participated. They were normal by history, physical exam and routine laboratory analysis of blood and urine.\n(§2) This was a single-blind, three-phase crossover study beginning after a 10-hour fast at 8 a.m., designated time 0 (control), when the first venipuncture occurred. In phase I, three capsules of lactose were given orally, followed by venipunctures 2 and 4 h later. In phase II, 1 week later, after a control blood specimen drawn at 8 a.m., PZG (900 mg) was given orally and blood specimens taken 2 and 4 h thereafter. In phase III, 3 weeks later, after a control blood specimen drawn at 8 a.m., PZA (300 mg) was given orally and blood specimens taken 2 and 4 h later.\n(§3) Each phase consisted of taking three capsules, each containing 300 mg. In phase I, all three capsules were of lactose; in phase II, all three were PZG; and in phase III, two capsules were lactose and one PZA. All capsules appeared indistinguishable and were given to each subject who swallowed them with water in the presence of an investigator.\n(§4) Once obtained, blood specimens were immediately spun. Refrigerated serum or plasma was analyzed within 24 h for glucose, insulin, electrolytes, blood urea nitrogen, creatinine, liver function tests, triglycerides, total cholesterol, high-density lipoprotein (HDL) cholesterol, low-density lipoprotein (LDL) cholesterol, very-low-density lipoprotein (VLDL) cholesterol, free fatty acids, and fibrinogen.\nRepeated measures of analysis of variance were used to compare each subject's placebo, PZG and PZA phase. Two-tailed Student t-tests were performed between groups. All results are reported as means ±SD. Statistical significance was considered when p<0.05. The results are illustrated in Tables 1-4."}, "[2]": {"test": "Serum concentration of PZG or PZA after single oral dose in the crossover study", "format": "in vivo", "conditions": "human, 900 mg, 8 normal subjects", "experimental": "as §1, §2, §3, §4"}, "[3]": {"system": "cutaneous vasomotor reaction of blush area", "test": "Cutaneous vasomotor response (and tolerability) after a single oral dose in 8 male volunteers", "format": "in vivo, human", "conditions": "single oral dose, 900 mg PZG", "experimental": "as §1, §2\nComparisons of mean serum or plasma concentrations ±SD during placebo, PZG and PZA phases are presented in Table 1 for glucose, insulin, C-peptide, free fatty acids and norepinephrine. Comparisons of mean serum or plasma concentrations ±SD during these three phases are presented in Table 2 for triglycerides, VLDL, LDL, HDL, total cholesterol, fibrinogen and serum PZG and PZA concentrations. Note the close agreement of serum PZG and PZA concentrations at 2 h and also at 4 h after their administration. Table 3 compares mean serum or plasma concentrations ±SD of renin, angiotensin I, adlosterone, potassium, urea and uric acid during the three phases of the study. […] In an earlier pilot experiment to determine serum PZA concentrations following different PZA doses, a first subject ([…]) after a single oral dose of 300 mg PZA developed unexpectedly a typical cutaneous vasomotor reaction of their blush area which included flushed, warm skin of face, neck and shoulders with a mild rash for about 90 min. […] They described the reaction variously as warm redness or flushed head and neck, rash and itching (Table 4). These reactions, which were graded from 6 (most severe) to 0 (not observed), lasted from 30 min in 3 subjects to 4 h in 1 subject. […] No significant correlation occurred between score of reaction (effect+duration) and PZA peak blood concentration among the subjects (r=0.281) (Table 4).\n^1 Score = warm + redness (flush) + rash + itching + duration. Duration\nas 0.5 h, 1, 2, 4 h (reaction and duration as noted)."}, "[4]": {"conditions": "2 h after single oral dose (PZG 900 mg, PZA 300 mg)"}, "[5]": {"conditions": "4 h after single oral dose (PZG 900 mg, PZA 300 mg)"}}}
{"smiles": "NC(N)=NC(=O)c1cnccn1", "note": "[PZG, pyrazinoylguanidine]", "values": [{"measurement": "Free fatty acids, mean", "setting": "[1]; [4]", "value": 0.20, "unit": "meq/l"}, {"measurement": "Angiotensin I, mean", "setting": "[1]; [4]", "value": 0.86, "unit": "ng/ml per h"}, {"measurement": "Renin, mean", "setting": "[1]; [4]", "value": 1.2, "unit": "ng/ml per h"}, {"measurement": "C-peptide, mean", "setting": "[1]; [4]", "value": 0.9, "unit": "ng/mL"}, {"measurement": "Potassium, mean", "setting": "[1]; [4]", "value": 4.5, "unit": "meg/l"}, {"measurement": "Uric acid, mean", "setting": "[1]; [4]", "value": 6.0, "unit": "mg/dL"}, {"measurement": "Aldosterone, mean", "setting": "[1]; [4]", "value": 10.0, "unit": "ng/dL"}, {"measurement": "Insulin, mean", "setting": "[1]; [4]", "value": 6.2, "unit": "μlU/ml"}, {"measurement": "Urea, mean", "setting": "[1]; [4]", "value": 17, "unit": "mg/dL"}, {"measurement": "VLDL Cholesterol, mean", "setting": "[1]; [4]", "value": 18, "unit": "mg/dL"}, {"measurement": "Norepinephrine, mean", "setting": "[1]; [4]", "value": 53, "unit": "pg/mL"}, {"measurement": "HDL Cholesterol, mean", "setting": "[1]; [4]", "value": 42, "unit": "mg/dL"}, {"measurement": "Glucose, mean", "setting": "[1]; [4]", "value": 84, "unit": "mg/dL"}, {"measurement": "Triglycerides, mean", "setting": "[1]; [4]", "value": 91, "unit": "mg/dL"}, {"measurement": "LDL Cholesterol, mean", "setting": "[1]; [4]", "value": 107, "unit": "mg/dL"}, {"measurement": "Total cholesterol, mean", "setting": "[1]; [4]", "value": 167, "unit": "mg/dL"}, {"measurement": "Fibrinogen, mean", "setting": "[1]; [4]", "value": 273, "unit": "mg/dL"}, {"measurement": "Free fatty acids, mean", "setting": "[1]; [5]", "value": 0.19, "unit": "meq/l"}, {"measurement": "Angiotensin I, mean", "setting": "[1]; [5]", "value": 1.0, "unit": "ng/ml per h"}, {"measurement": "Renin, mean", "setting": "[1]; [5]", "value": 1.8, "unit": "ng/ml per h"}, {"measurement": "C-peptide, mean", "setting": "[1]; [5]", "value": 0.6, "unit": "ng/mL"}, {"measurement": "Potassium, mean", "setting": "[1]; [5]", "value": 4.3, "unit": "meg/l"}, {"measurement": "Uric acid, mean", "setting": "[1]; [5]", "value": 6.2, "unit": "mg/dL"}, {"measurement": "Aldosterone, mean", "setting": "[1]; [5]", "value": 9.5, "unit": "ng/dL"}, {"measurement": "Insulin, mean", "setting": "[1]; [5]", "value": 3.4, "unit": "μlU/ml"}, {"measurement": "Urea, mean", "setting": "[1]; [5]", "value": 16, "unit": "mg/dL"}, {"measurement": "VLDL Cholesterol, mean", "setting": "[1]; [5]", "value": 16, "unit": "mg/dL"}, {"measurement": "Norepinephrine, mean", "setting": "[1]; [5]", "value": 113, "unit": "pg/mL"}, {"measurement": "HDL Cholesterol, mean", "setting": "[1]; [5]", "value": 42, "unit": "mg/dL"}, {"measurement": "Glucose, mean", "setting": "[1]; [5]", "value": 80, "unit": "mg/dL"}, {"measurement": "Triglycerides, mean", "setting": "[1]; [5]", "value": 79, "unit": "mg/dL"}, {"measurement": "LDL Cholesterol, mean", "setting": "[1]; [5]", "value": 113, "unit": "mg/dL"}, {"measurement": "Total cholesterol, mean", "setting": "[1]; [5]", "value": 171, "unit": "mg/dL"}, {"measurement": "Fibrinogen, mean", "setting": "[1]; [5]", "value": 273, "unit": "mg/dL"}, {"measurement": "effect on potassium blood concentrations", "setting": "[1]; single oral dose, within 4 h", "value": "not changed"}, {"measurement": "concentration at 2 h", "setting": "[2]; 2 h after single oral dose (PZG 900 mg, PZA 300 mg), read-out: Serum concentration of PZG or PZA, mean", "value": 5100, "unit": "ng/mL"}, {"measurement": "concentration at 4 h", "setting": "[2]; [5]", "value": 3000, "unit": "ng/mL"}, {"measurement": "adverse reactions", "setting": "[3]", "value": "no adverse reaction"}, {"measurement": "tolerability", "setting": "[3]", "value": "well tolerated"}]}
